Data on three compounds can be found in ChEMBL document CHEMBL3608224, “Total synthesis of cordatanine, structural reassignment of drymaritin, and anti-inflammatory activity of synthetic precursors” (Bioorg Med Chem Lett, 2015).

The structures appear in SMILES notation. Values after ≈ are worked out from the molar mass of the structure shown.

Assay [1] is described as follows: Antiinflammatory activity in FMLP/CB-induced human neutrophils assessed as inhibition of elastase release. The class given is functional, cell-based. The note with it: Neutrophil.
Assay [2] can be described thus: Antiinflammatory activity in FMLP/CB-induced human neutrophils assessed as inhibition of superoxide anion generation relative to control. It is filed as functional, Neutrophil.
Assay [3] can be described thus: Antiinflammatory activity in FMLP/CB-induced human neutrophils assessed as inhibition of superoxide anion generation. It is filed as functional, cell-based. The note with it: Neutrophil.
Assay [4] can be described thus: Antiinflammatory activity in FMLP/CB-induced human neutrophils assessed as inhibition of elastase release relative to control. It is filed as functional, Neutrophil.

For `CCOC(=O)c1nccc2c1[nH]c1ccccc12`, the IC50 came out at 6.29 µg/mL (≈ 26.2 µM) in assay [1] and 4.87 µg/mL (≈ 20.3 µM) in assay [3]. Moreover, the “inhibition (INH)” value in assay [2] was 93.92%; in assay [4], 70.75%.

Turning to `COc1cc(=O)n2c3ccccc3c3ccnc1c32`, the IC50 in assay [1] and in assay [3] was more than 10 µg/mL in each case. Besides, the “inhibition (INH)” value is 29.5% in assay [2] and 8.2% in assay [4].

With `CCOC(=O)CC(=O)c1nccc2c1[nH]c1ccccc12`, the IC50 in assay [1] and in assay [3] was more than 10 µg/mL in each case. The figures for the “inhibition (INH)” value in assay [2] and in assay [4] were 10.48% and 3.06%, respectively.
